What was measured:
[1] = Hot plate test, latency for pain reaction; type: in vivo, mice; conditions: FIG. 48E
Procedure: Epidemiological studies indicate that people with mood disorders are twice as likely to have chronic pain compared to people without mood disorders (Ohayon et al., Arch. Gen. Psychiatry 60: 39-47 (2003)). Although it is possible that pain contributes to the depressed mood, it is also possible that perception of pain is increased in people with mood disorders. To determine whether SCID mice have altered pain tolerance, the latency for pain reaction to a hot plate was measured. […] (FIG. 30) and at 55° C.
Because tolerance to pain (Example 26) is also linked to the serotonergic pathways, measurements of the latency to pain reaction on hot plate after saline, serotonin reuptake inhibitor fluoxetine (Prozac) or serotonin antagonist GR38032F (Zofran) injection were made.
(§1) Elevated plus maze tests, light/dark chamber tests, forced swim tests (FST) and hot plate tests were performed as described earlier.

[2] = system: mouse embryonic fibroblasts and Chinese hamster ovary cells; conditions: Veuger et al 2003; Griffin et al. 2005; cited from earlier work
[3] = system: MCF7 cells; assay: Reactive oxygen species production in MCF7 cells (CM-H2DCFDA); type: cell-based; conditions: NU 7026 5 μM 12 h, DNP 200 μM 10 min, Troglitazone 30 μM 4 hr, Euk-134 5 μM 3 h, MnTBAP 14 μM 3 h, FIG. 4
Source text: Measurement of intracellular reactive oxygen species was based on changes in the fluorescence intensity of redox-sensitive fluorescent probes, including CM-H2DCFDA. CM-H2DCFDA is a probe for intracellular hydrogen peroxide (Jou M J et al. J. Biomed Sci 9:507 (2002)). CM-H2DCFDA rapidly diffuses into cells, reacts with intracellular glutathione and thiols, and yields a fluorescent product that is retained inside the cell (Shanker G et al. Mol Brain Res 128:48, 2004). The fluorescence intensity of CM-H2DCFDA is therefore indicative of the amount of intracellular H2O2.
Briefly, cells were incubated with 10 uM CM-H2DCFDA for 30 min at 37° C. The cells were then excited at the peak excitation wavelength for CM-H2DCFDA (485 nm) and emissions at 535 nm were measured with Wallac Victor multilable counter (Perkin Elmer). For glucose treatment, the total sugar content in the media was kept constant by supplementing with mannitol, which is not metabolized.
MCF-7 cells were obtained from ATCC and grown as recommended. Confluent MCF-7 cells were incubated with serum-free DMEM medium for 3-12 h before the experiment. MCF-7 cells were then treated with DNA-PK inhibitor NU 7026 (5 μM; Calbiochem) for 12 h, DNP (200 μM; Sigma) for 10 min, Troglitazone (30 μM) for 4 hr, Euk-134 (5 μM; Eukarion) for 3 h, MnTBAP (14 μM; Calbiochem) for 3 h and Resveratrol.

[4] = system: C2C12 cells; assay: Mitochondrial DNA copy number in C2C12 cells; type: cell-based; conditions: C2C12 cells, 2.5 μM, FIG. 49C
Procedure: Quantitative Real-Time PCR was used to assess the relative amounts of nuclear DNA and mtDNA, to permit assessment of the ratio of mtDNA to nucleic DNA, which reflects the tissue concentration of mitochondria per cell. Muscle tissues were homogenized and digested with Proteinase K overnight in a lysis buffer for DNA extraction by conventional phenol-chloroform method. Quantitative PCR was performed using the following primers: […]
(§2) Increased mitochondrial function boosts energy production and physical endurance. […] Further tests were therefore conducted to ascertain whether DNA-PKcs inhibitor elevates mitochondrial biogenesis and expression of PGC-1α and Sirt, which are important for mitochondrial biogenesis. […] It is important to note that only 2.5 μM of NU7026 was required to induce a similar level of Sirt1 to that induced by 25-50 μM Resveratrol, a well-known, potent Sirt1 activator. In FIG. 49C, mitochondrial DNA copy number increased (>1.8 fold) in C2C12 cells after 2.5 μM NU7026 treatment.

[5] = system: Sirt1 and PGC-1α; assay: Sirt1 and PGC-1α expression in C2C12 myoblasts; type: cell-based
Procedure: as §2, with “activator.” for “activator. In FIG. 49C, mitochondrial DNA copy number increased (>1.8 fold) in C2C12 cells after 2.5 μM NU7026 treatment.”

[6] = system: PGC-1α; assay: PGC-1α expression in AMPK α1/α2-null MEFs; type: cell-based, mouse; conditions: FIG. 53
Source text: AMPK is a heterotrimer kinase composed of a catalytic α subunit, and the β and γ regulatory subunits. There are two isoforms (α1 and α2) of the catalytic α subunit.

[7] = Blood-brain barrier penetration inferred from behavioural effects; type: in vivo, mice; conditions: inferred from decreased anxiety/depression at a low-dose
Source text: For any central nervous system drugs, a major rate-limiting step for uptake into the brain is BBB permeability. […] The BBB is an essential physiological barrier for the maintenance and regulation of brain function. It is comprised of brain microvascular endothelial cells that are connected by tight junctions. This transvascular route to the brain is impenetrable to the majority of drugs. Enhanced BBB permeability is obtained, for example, by increasing the lipid solubility of the water-soluble molecules.

[8] = Forced swim test (FST); type: in vivo, mice; conditions: data not shown
Procedure: as §1

[9] = system: LKB1; assay: LKB1 activation (LKB1 phosphorylation) in C2C12 cells; type: cell-based; conditions: NU7026 2.5 μM, Resveratrol 50 μM, FIG. 51A
Procedure: Cells were treated with DNA-PKcs inhibitors to ascertain whether DNA-PKcs suppresses LKB1 activity in vitro.

[10] = system: LKB1; assay: LKB1 IP kinase assay of muscle of treated mice; type: in vivo; conditions: mice treated with a low-dose, data not shown
[11] = Glucose levels, insulin tolerance and glucose tolerance tests in treated mice; type: in vivo; conditions: mice, summary statement
Procedure: The therapeutic potential of DNA-PKcs inhibitors to treat insulin resistance and diabetes was tested in vivo using high-fat induced type 2 diabetes and obesity models. We examined the effects of DNA-PKcs inhibition by feeding C57BL6/J mice with Compound 36 (Cpd36) or vehicle. Mice were treated with Cpd36 (8 mg/kg body weight) twice daily by oral gavage for three months in all efficacy studies shown in FIGS. 40-47.

O=c1cc(N2CCOCC2)oc2c1ccc1ccccc12 [NU7026, 2-(morpholin-4-yl)-benzo[h]chomen-4-one]
time remaining on a hot surface [1]: remain on a hot surface for longer periods of time
pain sensation ([1]; hot plate): decreased pain sensation
sensitization to radiation in vitro [2]: sensitize mouse embryonic fibroblasts and Chinese hamster ovary cells to radiation
Reactive oxygen species production [3]: significantly decreased
mitochondrial DNA copy number increase [4]: > 1.8 fold
concentration required to induce a similar level of Sirt1 [5]: 2.5 µM
PGC-1α and Sirt1 expression ([5]; FIG. 49): dramatically elevated
PGC-1α expression [6]: not able to induce PGC-1α expression
blood-brain barrier (BBB) penetration [7]: can penetrate the blood-brain barrier (BBB) efficiently
immobility in the forced swim test [8]: decreased immobility
LKB1 activation (LKB1 phosphorylation) [9]: caused LKB1 activation
LKB1 activity in muscles [10]: strong induction of LKB1 activity
serum glucose levels [11]: decreased serum glucose levels

— patent US20100130597A1, “DNA-PKCS MODULATES ENERGY REGULATION AND BRAIN FUNCTION” (The United State of America, as represented by the …, priority 2007, published 2010)
